Results: paper PMC9405123, “Design, Synthesis and Mechanistic Studies of Novel Isatin-Pyrazole Hydrazone Conjugates as Selective and Potent Bacterial MetAP Inhibitors” (Antibiotics, 2022)
≈ marks a conversion by molar mass, not a printed value.

Experiments:
EfMetAP1a = EfMetAP1a (Enterococcus faecalis, UniProt Q832M5); assay: MetAP enzyme inhibition, Morrison Ki (Met-AMC fluorescence); format: biochemical; settings: Morrison Ki method
HsMetAP1b = target: T1, HsMetAP1b (Homo sapiens, UniProt P53582); assay: as above; format: biochemical, H. sapiens; settings: Morrison Ki method
T1 construct: made in house

B. subtilis [1] = assay: Growth inhibition screening (broth dilution); format: cell-based, Bacillus subtilis
Summary of the method: (§1)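 Standard NCCLS broth dilution in nutrient broth, with compounds dissolved in DMSO and tested at a final 250 µg/mL per well. About 2.5 × 10^5 cells/mL were inoculated and incubated overnight at 37 °C. Growth was read as culture turbidity at 590 nm.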

P. aeruginosa = assay: Growth inhibition screening (broth dilution); format: cell-based, Pseudomonas aeruginosa
Summary of the method: as §1

E. coli [2] = assay: Growth inhibition screening (broth dilution); format: cell-based, Escherichia coli
Summary of the method: as §1

K. pneumoniae = assay: Growth inhibition screening (broth dilution); format: cell-based, Klebsiella pneumonia
Summary of the method: as §1

E. faecalis [3] = assay: Minimum inhibitory concentration (broth dilution); format: cell-based; settings: Enterococcus faecalis, alone
B. subtilis [4] = assay: Minimum inhibitory concentration (broth dilution); format: cell-based; settings: Bacillus subtilis, alone
S. aureus [5] = assay: Minimum inhibitory concentration (broth dilution); format: cell-based; settings: Staphylococcus aureus, alone
E. faecalis [6] = assay: Growth kinetics; format: cell-based, Enterococcus faecalis
Method: Bacterial strains were tested as mentioned in Habib et al.. Briefly, ½ MIC, MIC and 2MIC values of PS9 were taken to assess the growth of bacterial strains whereas untreated cells and media were taken as positive and negative control, respectively.

E. coli [7] = assay: Time-kill curve assay; format: cell-based, Escherichia coli
Method: A time–kill curve study was performed against bacterial strains (E. coli, E. faecalis, K. pneumonia and P. aeruginosa) to determine whether compound PS9 is bactericidal or bacteriostatic. MIC, 2MIC and 4MIC concentrations were employed for the time–kill assay as explained by Ali et al.. Untreated bacterial cells were used as a control. 100 µL aliquot was taken from each flask at regular intervals. An aliquot was further diluted in phosphate buffer saline solution and from each concentration 50 µL aliquot was inoculated on a nutrient agar plate and spread. Colonies were counted after the incubation of the plate at 37 °C. For each strain, the average (mean) colony count data (log10 CFU/mL) was plotted against time.

G. mellonella larvae = assay: In vivo toxicological assessment, larval survival; set-up: species or system Galleria mellonella; settings: 100, 250, 500, 750 and 1000 μg/mL; up to 5 days
Method: The objective of this experiment was to assess the in vivo toxicity of PS9 using larvae of G. mellonella. […] The results obtained using Galleria larvae show a strong correlation to those generated using mammals and larvae have the advantage of producing results within 48 h, being inexpensive to purchase and house, and being free from the legal and ethical restrictions that affect mammalian testing. Larvae can also be used to assess toxicity and there is a strong correlation between the toxicity of compounds in larvae and mammals.
PS9 stock solutions were prepared in DMSO (≤10%) and deionized water and maintained at room temperature.
The greater wax G. mellonella sixth instar larvae were purchased from Live foods Direct Ltd. Sheffield, UK, and kept in the dark at 15 °C to suspend pupation. Healthy larvae with no appearance of melanization and weighing 150–250 mg were selected and stored in sterile nine cm Petri dishes containing wood shavings.

HK1 = assay: MBC on environmental MDR isolate
SH28 [8] = assay: MBC on environmental MDR isolate; settings: Aeromonas caviae
S. aureus [9] = assay: Combination study with AMP or CIP
HK32 = assay: MIC on environmental MDR isolate (microdilution); settings: Enterobacter cloacae
SH28 [10] = assay: MIC on environmental MDR isolate (microdilution); settings: Aeromonas caviae
LG1 = assay: MIC on environmental MDR isolate (microdilution)
LG20 = assay: MIC on environmental MDR isolate (microdilution)
LG51 = assay: MIC on environmental MDR isolate (microdilution); settings: Escherichia coli
JST63 = assay: MIC on environmental MDR isolate (microdilution)
S. aureus 33,591 = assay: In vivo antibacterial efficacy in infected larvae; settings: PS9 1000 μg/mL 30 min post-infection, up to 72 h
P. aeruginosa PAO1 = assay: In vivo antibacterial efficacy in infected larvae; settings: P. aeruginosa infected larvae (1.5 × 10^9 CFU/mL); PS9 1000 μg/mL; 48 and 72 h

Chain of EfMetAP1a (Q832M5 entry or part of it): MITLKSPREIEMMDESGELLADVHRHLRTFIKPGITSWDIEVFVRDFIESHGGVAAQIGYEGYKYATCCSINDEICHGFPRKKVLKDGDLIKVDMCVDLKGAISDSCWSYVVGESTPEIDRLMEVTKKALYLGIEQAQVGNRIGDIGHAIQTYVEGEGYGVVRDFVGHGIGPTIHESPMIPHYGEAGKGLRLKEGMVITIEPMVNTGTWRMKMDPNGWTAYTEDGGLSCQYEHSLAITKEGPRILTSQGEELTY

SMILES: O=C1Nc2ccc(F)cc2/C1=N\NC(=O)c1cc(-c2cccc(Br)c2)n[nH]1 [PS9, (E)-3-(3-Bromophenyl)-N′-(5-Fluoro-2-Oxoindolin-3-Ylidene)-1H-Pyrazole-5-Carbohydrazide]
- Ki (EfMetAP1a): 6.93 ± 0.45 µM
- Ki (HsMetAP1b): 632 ± 16.3 µM
- inhibition at 250 µg/mL (B. subtilis [1]; Bacillus subtilis): ≥ 94%
- % Growth Inhibition at 250 µg/mL (B. subtilis [1]; listed as C00009): 100%
- inhibition at 250 µg/mL (P. aeruginosa; Pseudomonas aeruginosa): ≥ 94%
- % Growth Inhibition at 250 µg/mL (P. aeruginosa; listed as C00009): 100%
- inhibition at 250 µg/mL (E. coli [2]; Escherichia coli): ≥ 94%
- % Growth Inhibition at 250 µg/mL (E. coli [2]; listed as C00009): 100%
- inhibition at 250 µg/mL (K. pneumoniae; Klebsiella pneumoniae): ≥ 94%
- % Growth Inhibition at 250 µg/mL (K. pneumoniae; listed as C00009): 94%
- MIC (E. faecalis [3]): 8 µg/mL (≈ 18.7 µM)
- MIC (B. subtilis [4]): 32 µg/mL (≈ 74.7 µM)
- MIC (S. aureus [5]): 32 µg/mL (≈ 74.7 µM)
- growth (E. faecalis [6]; 2MIC): no growth was observed in both cultures at 2MIC concentration till 24 h
- growth (E. faecalis [6]; MIC): no significant growth was found at MIC up to 10 h
- killing (log10 CFU/mL with time) (E. coli [7]; 4MIC, after 16 h): significant eradication
- killing (log10 CFU/mL with time) (E. coli [7]; MIC, till 16 h): no 100% eradication
- larval survival (G. mellonella larvae): 100%
- MBC (HK1): 512 µg/mL (≈ 1200 µM)
- MBC (SH28 [8]): 512 µg/mL (≈ 1200 µM)
- MIC in Combination (S. aureus [9]; combination PS9 + AMP): 4 µg/mL
- MIC in Combination (S. aureus [9]; combination PS9 + CIP): 8 µg/mL
- FICI (S. aureus [9]; combination with AMP): 0.37
- FICI (S. aureus [9]; combination with CIP): 0.28
- MIC (HK32): 64 µg/mL (≈ 149 µM)
- MIC (SH28 [10]): 128 µg/mL (≈ 299 µM)
- MIC (LG1): 32 µg/mL (≈ 74.7 µM)
- MIC (LG20; Enterobacter, isolate LG20 Enterobacter sp.): < 1 µg/mL
- MIC lower than AMP and CTX (LG20; isolate LG20): 32 times
- MIC (LG51): 1000 µg/mL (≈ 2340 µM)
- MIC (JST63): 1000 µg/mL (≈ 2340 µM)
- effect on death of infected larvae (S. aureus 33,591): does not delay this
- effect on death of infected larvae (P. aeruginosa PAO1): small protective effect
